Publication PMC10334278 (Journal of Pharmaceutical Analysis, 2023)

Biological target: T1, Recombinant human GSS (Homo sapiens, UniProt P48637)
T1 sequence (P48637 2-474): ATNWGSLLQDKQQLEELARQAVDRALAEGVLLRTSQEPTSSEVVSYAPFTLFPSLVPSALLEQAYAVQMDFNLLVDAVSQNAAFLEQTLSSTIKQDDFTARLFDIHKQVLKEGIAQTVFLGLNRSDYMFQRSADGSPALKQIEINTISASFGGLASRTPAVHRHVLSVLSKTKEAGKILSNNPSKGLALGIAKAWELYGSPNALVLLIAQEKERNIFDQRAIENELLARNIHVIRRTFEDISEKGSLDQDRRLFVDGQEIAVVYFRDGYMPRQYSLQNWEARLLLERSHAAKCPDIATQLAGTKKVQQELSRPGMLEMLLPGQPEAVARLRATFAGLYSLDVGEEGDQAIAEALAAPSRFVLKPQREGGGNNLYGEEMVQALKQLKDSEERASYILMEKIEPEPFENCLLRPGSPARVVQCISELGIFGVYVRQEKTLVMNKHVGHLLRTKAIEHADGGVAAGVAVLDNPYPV
Assay: isothermal titration calorimetry
Type: binding

Kd: 1.09 µM
Structure (SMILES): N[C@@H](CCC(=O)N[C@@H](CS)C(=O)O)C(=O)O [γ-glutamylcysteine]
